Source: ChEMBL document CHEMBL1153863, “Evaluation of the local anaesthetic activity of 3-aminobenzo[d]isothiazole derivatives using the rat sciatic nerve model” (2009)

experiment: Local anaesthetic activity in rat sciatic nerve assessed as time required to decrease compound action potential to 50 %; type: functional

In order of rising IT50:
1. Cc1ccc2snc(NC(=O)C(C)N3CCCC3)c2c1 (stereo not given)  1.75 min
2. CCN(CC)CC(=O)Nc1c(C)cccc1C [LIDOCAINE]  3.14 min
3. CCNC(C)C(=O)Nc1nsc2ccccc12 (stereo not given)  4.2 min
4. CNC(C)C(=O)Nc1nsc2ccc(C)cc12 (stereo not given)  6.6 min
5. O=C(CCN1CCOCC1)Nc1nsc2ccccc12  7 min
6. CCCNC(C)C(=O)Nc1nsc2ccc(C)cc12 (stereo not given)  7.4 min
7. CC(C(=O)Nc1nsc2ccccc12)N1CCCC1 (stereo not given)  7.7 min
8. O=C(CCN1CCCC1)Nc1nsc2ccccc12  10 min
9. CCCNCC(=O)Nc1nsc2ccccc12  10 min
10. CN(C)CC(=O)Nc1nsc2ccccc12  10.5 min
11. CNCCC(=O)Nc1nsc2ccccc12  10.75 min
12. Cc1ccc2snc(NC(=O)C(C)N3CCCCC3)c2c1 (stereo not given)  11 min
13. Cc1ccc2snc(NC(=O)C(C)N(C)C)c2c1 (stereo not given)  11.6 min
14. CC(C(=O)Nc1nsc2ccccc12)N1CCOCC1 (stereo not given)  11.8 min
15. CC(C)NCC(=O)Nc1nsc2ccccc12  12.13 min
16. CC1CCN(CC(=O)Nc2nsc3ccccc23)CC1  25.5 min
17. CCNCCC(=O)Nc1nsc2ccccc12  26.1 min

experiment: Local anaesthetic activity in rat sciatic nerve assessed as vitality time; type: functional

In order of rising VT50:
1. CN(C)CC(=O)Nc1nsc2ccccc12  250 min
2. CCCNCC(=O)Nc1nsc2ccccc12  250 min
3. CC(C(=O)Nc1nsc2ccccc12)N1CCOCC1 (stereo not given)  350 min
4. CCCNC(C)C(=O)Nc1nsc2ccc(C)cc12 (stereo not given)  365 min
5. CCNCCC(=O)Nc1nsc2ccccc12  400.8 min
6. Cc1ccc2snc(NC(=O)C(C)N3CCCC3)c2c1 (stereo not given)  498 min
7. CC(C(=O)Nc1nsc2ccccc12)N1CCCC1 (stereo not given)  600 min
8. CCN(CC)CC(=O)Nc1c(C)cccc1C [LIDOCAINE]  660 min
9. CNC(C)C(=O)Nc1nsc2ccc(C)cc12 (stereo not given)  780 min
10. CNCCC(=O)Nc1nsc2ccccc12  839 min
11. CCNC(C)C(=O)Nc1nsc2ccccc12 (stereo not given)  861 min
12. O=C(CCN1CCCC1)Nc1nsc2ccccc12  870 min
13. CC1CCN(CC(=O)Nc2nsc3ccccc23)CC1  930 min
14. Cc1ccc2snc(NC(=O)C(C)N(C)C)c2c1 (stereo not given)  1012 min

experiment: Local anaesthetic activity in rat sciatic nerve assessed as time required to decrease compound action potential to 100 %; type: functional

In order of rising IT100:
1. CC(C(=O)Nc1nsc2ccccc12)N1CCCC1 (stereo not given)  11.6 min
2. CCNC(C)C(=O)Nc1nsc2ccccc12 (stereo not given)  12.9 min
3. CCN(CC)CC(=O)Nc1c(C)cccc1C [LIDOCAINE]  14 min
4. CCCNC(C)C(=O)Nc1nsc2ccc(C)cc12 (stereo not given)  14.8 min
5. Cc1ccc2snc(NC(=O)C(C)N3CCCC3)c2c1 (stereo not given)  17.5 min
6. CCCNCC(=O)Nc1nsc2ccccc12  17.5 min
7. O=C(CCN1CCOCC1)Nc1nsc2ccccc12  17.9 min
8. CNC(C)C(=O)Nc1nsc2ccc(C)cc12 (stereo not given)  20 min
9. O=C(CCN1CCCC1)Nc1nsc2ccccc12  20.4 min
10. CNCCC(=O)Nc1nsc2ccccc12  20.5 min
11. CC(C(=O)Nc1nsc2ccccc12)N1CCOCC1 (stereo not given)  23 min
12. Cc1ccc2snc(NC(=O)C(C)N(C)C)c2c1 (stereo not given)  23.75 min
13. CC(C)NCC(=O)Nc1nsc2ccccc12  30.2 min
14. Cc1ccc2snc(NC(=O)C(C)N3CCCCC3)c2c1 (stereo not given)  37 min
15. CC1CCN(CC(=O)Nc2nsc3ccccc23)CC1  37.45 min
16. CCNCCC(=O)Nc1nsc2ccccc12  79.5 min

experiment: Local anaesthetic activity in rat sciatic nerve assessed as time required to decrease compound action potential to recover to 50 %; type: functional

In order of falling RT50:
1. CCCNCC(=O)Nc1nsc2ccccc12  200 min
2. Cc1ccc2snc(NC(=O)C(C)N(C)C)c2c1 (stereo not given)  162 min
3. CCNCCC(=O)Nc1nsc2ccccc12  154.8 min
4. CC(C)NCC(=O)Nc1nsc2ccccc12  150 min
5. O=C(CCN1CCCC1)Nc1nsc2ccccc12  136.6 min
6. CNCCC(=O)Nc1nsc2ccccc12  136 min
7. CC(C(=O)Nc1nsc2ccccc12)N1CCCC1 (stereo not given)  135 min
8. CC(C(=O)Nc1nsc2ccccc12)N1CCOCC1 (stereo not given)  126 min
9. Cc1ccc2snc(NC(=O)C(C)N3CCCC3)c2c1 (stereo not given)  122 min
10. CC1CCN(CC(=O)Nc2nsc3ccccc23)CC1  122 min
11. CCNC(C)C(=O)Nc1nsc2ccccc12 (stereo not given)  100 min
12. CN(C)CC(=O)Nc1nsc2ccccc12  100 min
13. O=C(CCN1CCOCC1)Nc1nsc2ccccc12  86 min
14. CNC(C)C(=O)Nc1nsc2ccc(C)cc12 (stereo not given)  60 min
15. CCN(CC)CC(=O)Nc1c(C)cccc1C [LIDOCAINE]  48.75 min

experiment: Local anaesthetic activity in rat sciatic nerve assessed as time required to decrease compound action potential to 100 % relative to Lidocaine; type: functional; parameters: scale not given: the % may be the effect or the level left

In order of falling Activity:
1. CC(C(=O)Nc1nsc2ccccc12)N1CCCC1 (stereo not given)  120.7%
2. CCNC(C)C(=O)Nc1nsc2ccccc12 (stereo not given)  108.5%
3. CCN(CC)CC(=O)Nc1c(C)cccc1C [LIDOCAINE]  100%
4. Cc1ccc2snc(NC(=O)C(C)N3CCCC3)c2c1 (stereo not given)  80%
5. CCCNCC(=O)Nc1nsc2ccccc12  80%
6. O=C(CCN1CCOCC1)Nc1nsc2ccccc12  78.2%
7. Cc1ccc2snc(NC(=O)C(C)N(C)C)c2c1 (stereo not given)  75.7%
8. CNC(C)C(=O)Nc1nsc2ccc(C)cc12 (stereo not given)  70%
9. O=C(CCN1CCCC1)Nc1nsc2ccccc12  68.6%
10. CNCCC(=O)Nc1nsc2ccccc12  68.3%
11. CCCNC(C)C(=O)Nc1nsc2ccc(C)cc12 (stereo not given)  65.1%
12. CC(C(=O)Nc1nsc2ccccc12)N1CCOCC1 (stereo not given)  60.9%
13. CC(C)NCC(=O)Nc1nsc2ccccc12  46.4%
14. Cc1ccc2snc(NC(=O)C(C)N3CCCCC3)c2c1 (stereo not given)  37.8%
15. CC1CCN(CC(=O)Nc2nsc3ccccc23)CC1  37.4%
16. CCNCCC(=O)Nc1nsc2ccccc12  17.6%

experiment: Local anaesthetic activity in rat sciatic nerve assessed as time required to decrease compound action potential to 50 % relative to Lidocaine; type: functional; parameters: scale not given: the % may be the effect or the level left

In order of falling Activity:
1. Cc1ccc2snc(NC(=O)C(C)N3CCCC3)c2c1 (stereo not given)  179%
2. CCN(CC)CC(=O)Nc1c(C)cccc1C [LIDOCAINE]  100%
3. CCNC(C)C(=O)Nc1nsc2ccccc12 (stereo not given)  74.8%
4. CNC(C)C(=O)Nc1nsc2ccc(C)cc12 (stereo not given)  47.6%
5. O=C(CCN1CCOCC1)Nc1nsc2ccccc12  44.9%
6. CC(C(=O)Nc1nsc2ccccc12)N1CCCC1 (stereo not given)  40.8%
7. O=C(CCN1CCCC1)Nc1nsc2ccccc12  31.4%
8. CCCNCC(=O)Nc1nsc2ccccc12  31.4%
9. CN(C)CC(=O)Nc1nsc2ccccc12  29.9%
10. CNCCC(=O)Nc1nsc2ccccc12  29.2%
11. Cc1ccc2snc(NC(=O)C(C)N3CCCCC3)c2c1 (stereo not given)  28.5%
12. CC(C(=O)Nc1nsc2ccccc12)N1CCOCC1 (stereo not given)  26.6%
13. CC(C)NCC(=O)Nc1nsc2ccccc12  25.9%
14. Cc1ccc2snc(NC(=O)C(C)N(C)C)c2c1 (stereo not given)  25.7%
15. CCCNC(C)C(=O)Nc1nsc2ccc(C)cc12 (stereo not given)  23.6%
16. CC1CCN(CC(=O)Nc2nsc3ccccc23)CC1  12.3%
17. CCNCCC(=O)Nc1nsc2ccccc12  12%
